From PubChem BioAssay (NCI)
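All cell lines were grown in 96-well plates and treated with compound for 48 hours. GI50 is the concentration that inhibits growth by half. Definition used: TGI = concentration required for complete inhibition of growth.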

Legend:
Test in all cases: inhibition of tumour cell growth, NCI panel, 48 h
HCT-116 colon = test system: HCT-116 colon
SK-OV-3 ovarian = test system: SK-OV-3 ovarian
LOX IMVI melanoma = test system: LOX IMVI melanoma
A549 NSCLC = test system: A549 NSCLC
M14 melanoma = test system: M14 melanoma
SNB-75 CNS = test system: SNB-75 CNS
HCC-2998 colon = test system: HCC-2998 colon
SR leukemia = test system: SR leukemia
HT29 colon = test system: HT29 colon
BT-549 breast = test system: BT-549 breast

SMILES	TGI (HCT-116 colon) [µM]	TGI (SK-OV-3 ovarian) [µM]	TGI (LOX IMVI melanoma) [µM]	TGI (A549 NSCLC) [µM]	TGI (M14 melanoma) [µM]	GI50 (SNB-75 CNS) [µM]	TGI (SNB-75 CNS) [µM]	GI50 (HCC-2998 colon) [µM]	TGI (HCC-2998 colon) [µM]	GI50 (SR leukemia) [µM]	TGI (SR leukemia) [µM]	GI50 (HCT-116 colon) [µM]	GI50 (HT29 colon) [µM]	TGI (HT29 colon) [µM]	GI50 (SK-OV-3 ovarian) [µM]	GI50 (A549 NSCLC) [µM]	GI50 (M14 melanoma) [µM]	GI50 (BT-549 breast) [µM]	TGI (BT-549 breast) [µM]	GI50 (LOX IMVI melanoma) [µM]
O=C(NCCOCCO)c1ccc(O)cc1	> 100	> 100	> 100	> 100	> 100															
OC(c1cc2c(Cl)cc(Cl)cc2c2cc(C(F)(F)F)ccc12)C1CCCCN1 (stereo not drawn)	3.37	3.26		3.68	4.12	1.79	3.36	1.64	3.24	1.49	3.95	1.67	1.97	3.71	1.67	1.85	2.04			
CCCCCCCCCCCC(=O)[O][Sn]([CH2]CCC)([CH2]CCC)[CH2]CCC	0.14	0.193	0.0712	0.185	0.142	0.0282	0.113	0.0669	0.187			0.0379	0.0355	0.11	0.0617	0.055	0.0548	0.0623	0.184	0.0259
C[C@]12CC[C@H](O)CC1CCC[C@@H]2O (stereo partly drawn)	> 100	> 100	> 100	> 100	> 100		> 100		> 100					> 100						
Cn1c(=O)c2nc3sc4ccccc4c(=N)n3c2n(C)c1=O		> 100	> 100	> 100					> 100		> 100			> 100						
Cc1ccc(Sc2cc([N+](=O)[O-])cc(Sc3ccc(C)cc3)c2Sc2ccc(C)cc2)cc1	> 100		> 100	> 100	> 100		> 100		> 100					> 100						
Cn1c(=O)ccc2cc(C(=O)c3ccccc3)ccc21	> 100	> 100	> 100	> 100	> 100		54.3		> 100					> 100						
O=C1CCC(=O)C12CCc1ccccc12		> 100	> 100	> 100	> 100		> 100		> 100					> 100						
C=C1[C@@H]2CCC(C)(C)[C@H]1CCC(=O)[C@@H]2C(=O)OC	> 100		> 100	> 100	> 100				> 100		> 100			> 100						
COc1cc(/C=C/C(=O)c2ccc(SC)cc2)cc(OC)c1OC	13.7	30.6		20.7	22.4	6.08	20.5	18	33.2	3.56	> 100	3.3	4.15	24.4	15.8	6.25	10.5	10.1	24.6	
OC1OC2COC(c3ccccc3)OC2C(O)C1O (stereo not drawn)	> 100	> 100	> 100	> 100	> 100				> 100					> 100						
Nc1c(-c2ccc(-c3c(N)[n+]([O-])c4ccccc4[n+]3[O-])cc2)[n+]([O-])c2ccccc2[n+]1[O-]		52.7	25.6	51.9	35.1		21.9		29.6					27.1						
COc1ccc(/C=C\c2cc(OC)c(OC(C)=O)c(OC)c2)cc1	> 100	> 100		78	92.2		15		36.7		98.2			47.9						
COc1cccc(/C=N/[N-]C(N)=O)c1[O-].[Cu+2].c1ccncc1	32	49.7	36.5	34.9	31.4		33.4		> 100					85.3						
O=C1OC(=O)C2C1C1(c3ccccc3)OC2(c2ccccc2)c2c(Br)c(Br)c(Br)c(Br)c21 (stereo not drawn)	> 100	74.9	> 100	> 100	> 100		> 100							> 100						
Cc1cccc(C)c1NC(=O)/C(CC(=O)CC(c1ccccc1)c1c(O)c2ccccc2oc1=O)=N/O (stereo not drawn)	> 100	> 100	> 100	> 100	> 100		> 100		> 100					> 100					> 100	
CCN(CC)[C@@H]1c2cc3c(cc2C(c2cc(OC)c(O)c(OC)c2)C2C(=O)CO[C@@H]21)OCO3 (stereo partly drawn)	> 100	> 100	> 100	> 100	> 100		> 100		> 100		> 100			> 100						
Nc1nc(-c2ccccc2Cl)cc(-c2ccc(Cl)cc2Cl)n1	> 100	62.3	> 100	> 100	> 100			7.19	44	4.1	> 100	4.27	4.32	24.3	10.1	4.81	5.95	13.8	> 100	4.89
CCC1(O)CC(c2ccccc2)N(C)C(c2ccccc2)C1 (stereo not drawn)	> 100	> 100	> 100	> 100	> 100		> 100		> 100					> 100						
O=C1OC(/C=C/c2ccccc2)C(=O)C1=O (stereo not drawn)		> 100		> 100	> 100		> 100		> 100					> 100						
c1ccc2c(c1)-c1nc3ccccc3cc1C2N1CCOCC1 (stereo not drawn)	> 100	> 100	> 100	> 100	> 100		> 100				> 100			> 100					> 100	
CN=C(NC#N)NCc1ccccc1	> 100	> 100	> 100	> 100	> 100		> 100		> 100		> 100			> 100						
CCCCCCCCCCCCCCCc1nc(SCC(=O)O)n[nH]1	> 100	> 100	> 100	> 100	42.4				> 100		> 100			> 100						

SMILES	TGI (HCT-116 colon) [µM]	TGI (SK-OV-3 ovarian) [µM]	TGI (LOX IMVI melanoma) [µM]	TGI (A549 NSCLC) [µM]	TGI (M14 melanoma) [µM]	GI50 (SNB-75 CNS) [µM]	TGI (SNB-75 CNS) [µM]	GI50 (HCC-2998 colon) [µM]	TGI (HCC-2998 colon) [µM]	GI50 (SR leukemia) [µM]	TGI (SR leukemia) [µM]	GI50 (HCT-116 colon) [µM]	GI50 (HT29 colon) [µM]	TGI (HT29 colon) [µM]	GI50 (SK-OV-3 ovarian) [µM]	GI50 (A549 NSCLC) [µM]	GI50 (M14 melanoma) [µM]	GI50 (BT-549 breast) [µM]	TGI (BT-549 breast) [µM]	GI50 (LOX IMVI melanoma) [µM]
COc1ccc(/C=N/C2=C(C#N)C(c3ccccc3)c3ccc4ccccc4c3O2)cc1 (stereo not drawn)	> 37.8	> 100	> 51.4	> 100	> 100			0.92	> 42	0.304	> 75.8	0.402	0.53	> 100	0.539	0.641	0.336	0.793	> 100	0.587
COc1ccc(/C=C/c2cnnc3ccccc23)cc1OC	> 10	> 10	> 10	> 10	> 10		> 10		> 10					> 10					> 10	
COc1cc2c(cc1OC)-c1c(c3ccc([N+](=O)[O-])cc3c(=O)n1CCCBr)C2=O	> 100	> 100	42.4	> 100	26.7			59.7	> 100			4.31	61.9	> 100	60.5	28.9	2.39	> 100	> 100	3.9
COc1cc(Nc2nccc(-c3cnn4ncccc34)n2)cc(OC)c1	> 14.9	9.84	> 9.54	5.67	0.838	0.0754	0.308	0.104	1.71			0.0439	0.0842	0.709	0.418	0.119	0.0891	0.0893	2.19	0.0539
CC(=O)c1ccc(-c2ccc(C(C)=O)s2)s1	> 100	> 100	> 100	> 100	> 100		> 100		> 100		> 100			> 100						
O=C(c1ccccc1)C(c1ccccc1)C1(O)C(=O)Nc2ccc(Br)cc21 (stereo not drawn)	> 100	> 100		> 100	> 100		> 100		> 100		> 100			> 100						
COc1cc(C2C(Cl)C(=O)N2NC(=O)c2ccccc2O)cc(OC)c1OC (stereo not drawn)			> 10	> 10	> 10		> 10				> 10			9.06					> 10	
CCn1cc(C(=O)O)c(=O)c2cc(F)c(N3CCNCC3)nc21	> 100	> 100	> 100	> 100	> 100		> 100		> 100		> 100			> 100						
Fc1cccc(C2SCc3nc4ccccc4n32)c1 (stereo not drawn)	> 100	> 100		> 100			> 100		> 100		> 100			> 100						
COC(=O)c1cccc(COc2ccc([N+](=O)[O-])cc2Cl)c1	> 100	> 100	> 100	> 100	> 100		> 100				> 100			> 100					> 100	
O=C(O)c1cccc(F)c1C(=O)c1ccc2ccccc2c1	> 100	> 100	> 100	> 100	> 100		> 100							> 100					> 100	
COC(=O)C1=CCS(=O)(=O)C1	> 100	> 100	> 100	> 100	> 100		> 100		> 100					> 100						
Cc1cc2c(C=O)[nH]nc2c(C#N)c1C	> 100	> 100	> 100	> 100	> 100		40.9		> 100					> 100						
O=C1C2Cc3ccccc3CN2C(=O)N1CCN1CCOCC1 (stereo not drawn)			> 100	> 100	> 100				> 100		> 100									
CC12CCC(C)(c3cc(O)c(O)cc31)c1cc(O)c(O)cc12		36.7	35.4	94.4	36		52.5		33.6					33.2						
O=CN/C=C\c1cc(O)ccc1O	25.2	> 100	22.7	> 100	> 50.3		> 100		> 100		21.3			> 31.6						
N=C(N)c1ccc(-c2ccc(-c3ccccc3)o2)o1	5.29	16	3.34	11.7	3.4	1.6	4.12	1.61	3.25			2.06	2.11	4.7	4.3	3.55	1.62	4.12	16	1.7
O=c1c2ccc(Br)cc2nc(-c2ccccc2)n1NC1OC(CO)C(O)C(O)C1O (stereo not drawn)	> 100	> 100		> 100	> 100		> 100		> 100					> 100						
OC1/C(=C/c2ccccc2)CNC/C1=C\c1ccccc1 (stereo not drawn)	> 100	> 100	> 100	> 100	> 100		> 100		> 100		> 100			> 100						
COc1cc(C2C(C(=O)Nc3ccccc3C)=C(C)NC(C)=C2C(=O)Nc2ccccc2C)ccc1O	> 100	> 100		> 100	> 100		> 100		> 100					> 100						
OCC1C2C=CC(O2)[C@H]1CO (stereo partly drawn)	> 100	> 100	> 100	> 100	> 100		> 100		> 100		> 100			> 100						
O=c1cc(/C=C/c2ccccc2)c2ccc(O/C(=C\c3ccccc3)c3nc4ccccc4c(=O)o3)cc2o1	36.5	> 100	> 100	> 100	50.1				> 100											
CN(CC(=O)O)Cc1c[nH]c2ccccc12	> 100	> 100	> 100	> 100	> 100		> 100				> 100			> 100					> 100	
